Experimental data published in patent US7304129B2 (Imperial Innovations Limited, priority 2000, dated 2007).
Where “and” joins values, the source holds several entries; their conditions need not be identical. Equal values may be shown once. Entries after “also recorded” stand apart in the source; their conditions may differ. Positions of bridges follow the written chain, without caps; N, C: chain ends. Chains are numbered I, II in the order given. No end group written: not given here.

Legend:
[1] = system: MAP kinase; experiment: Western blot for tyrosine phosphorylated MAP kinase in NIH 3T3 cells; format: cell-based; details: peptide 400 μg/ml, 10 minutes
Protocol: A Western blot (FIG. 2f) was obtained as follows: one million NIH 3T3 cells were serum starved for 24 hours then challenged with the following agents: DMEM, 10% FCS, 0.1 ng/ml FGF2, 1 ng/ml FGF2, 10 ng/ml FGF2, 5 μg/ml insulin, 400 μg/ml peptide 52 for 10 minutes at 37 degrees Celsius before being lysed in sample buffer and band separated by PAGE. Proteins were transferred to PVDF membranes and probed with an antibody that recognises tyrosine phosphorylated MAP kinse (upper panel).

[2] = system: NIH 3T3 cells; experiment: NIH 3T3 cell survival MTS assay in serum-free DMEM (Example 6); format: cell-based
Protocol: NIH 3T3 cells are plated in 96-well plates at a density of 5,500 cells/well in 100 μl DMEM containing 0.5% FCS. After 24 hours, this medium is aspirated from the wells and replaced with 100 μl serum-free DMEM alone, or supplemented with 0.5% FCS (positive control), or a single potential survival factor, with four identical wells set up for each condition. The cells are left for up to seven days at 37 degrees and 8% CO2 before the cell survival is determined using an MTS assay. In this assay 20 μl of MTS substrate is added to each 100 μl well and the plate left in the incubator for up to four hours. Respiring cells produce a coloured reaction product that can be read using a spectrophotometer at 490 nm. […] The mean absorbance at 490 nm+/−SEM is determined for the four identically set up wells. Wells containing a known survival factor such as insulin will contain more living cells after three days than cells cultured in unsupplemented medium.

[3] = system: cerebellar neurons; experiment: survival of neurons (Example 5b); format: cell-based
[4] = system: cells in S phase (bromodeoxyuridine incorporation into DNA); experiment: bromodeoxyuridine incorporation (entry into S phase) mitogenicity assay; format: cell-based; details: peptide, any of the concentrations tested
Protocol: The mitogenicity of an agent can be determined by testing its ability to stimulate entry of cells into ‘S’ phase in readiness for cell division. This is done by standard methodology and involves incubating cells in the presence of a potential mitogen in DMEM supplemented with bromodeoxyuridine. After six hours the cells are fixed and stained with an antibody recognising bromodeoxyuridine. Cells in S phase can be distinguished by their incorporation of bromodeoxyuridine into DNA.

[5] = system: NIH 3T3 cells; experiment: NIH 3T3 survival and morphology, TRITC-conjugated phalloidin staining; format: cell-based; details: three days; insulin 0.5 pg/ml, FGF2 0.1 ng/ml, Peptide A(d) 10 ng/ml
[6] = system: Oligodendrocyte progenitors (O4 positive); format: cell-based, rat; details: six days in culture
From the text: Oligodendrocyte progenitors (O4 positive) are purified from postnatal day 4 rat cerebral cortex. First a trypsinised preparation of cortical cells is dissociated to single cell suspension and pre-plated to remove unwanted adherent cells such as microglia and macrophages. Oligodendrocyte progenitors express the O4 antigen, and can be purified by panning on petri-dishes coated with anti O4 antibodies. Unbound cells are removed by gentle washing, then O4 positive cells are removed by triturating them off the plate with DMEM containing 1% FCS, through a flame-polished pasteur pipette. O4 positive cells are plated on polyornithine-coated glass coverslips at a density of 500,000 cells per well in minimal growth medium containing insulin or the peptide Ac-DRVEPYSSTA[lys]2[lys] i.e. [{Ac-DRVEPYSSTA}2-K]2-K-OH, Peptide A(d), for six days, before being fixed and stained with the anti O4 antibody. Viable O4 positive cells are counted for each condition

[7] = system: L6 cell line; experiment: survival of L6 cell line lacking FGF receptors; format: cell-based; details: FGF2 0.1, 1 and 10 ng/ml; Peptide A(d) 100 and 400 μg/ml
Protocol: FIG. 2d compares the effects of DMEM, FCS, FGF2 at 0.1, 1 and 10 ng/ml, insulin at 0.5 and 5 μg/ml, and Peptide A(d) at 100 and 400 μg/ml.

[8] = system: NIH3T3 cells; experiment: cell survival/proliferation at two plating densities; details: 11,000 cells per well; FGF2 10 ng/ml
From the text: FGF2 is a mitogen for a range of cells, including NIH3T3 cells.

[9] = system: cells growing in the presence of FGF2 or Peptide A(d); experiment: mitogenesis by observation of cells growing (rounding-up, cell number); format: cell-based
From the text: FGF stimulates axonal regeneration, cell survival and mitogenesis. […] This can be seen by the failure of Peptide A(d)-treated cells to show the rounding-up characteristic of cell division, and there is not the increase in cell number observed in the presence of a mitogenic stimulation by FGF2.

[10] = system: NIH 3T3 fibroblasts; experiment: survival of 3T3 fibroblasts in serum-free DMEM (MTS and morphologic method, Example 5a); format: cell-based
Protocol: NIH 3T3 fibroblasts were plated in each well of a 96-well microtitre plate at a density of 7,000 cells per well in DMEM containing 3% FCS and left to attach overnight. The following day the growth medium was removed and replaced with 0.1 ml DMEM supplemented with FGF or Peptide A(d) or both, eight wells for each condition. The negative control was DMEM alone (maximal cell death) and the positive control was supplementation with 0.5% FCS (maximal cell survival).
Six days later (seven days from first plating the cells), the relative number of living cells in each well was assessed by adding the mitochondrial substrate MTS, [3-(4,5-dmethylthiazol-2-yl)-5-(3-carboxymethoxyphenyl)-2-(4-sulphophenyl)-2H-tetrazolium, inner salt), for four hours before reading the optical density on a microtitre plate reader at a wavelength of 490 nm. The optical density gives a measure of the number of respiring cells present in each well at the end of the assay period.
In addition to the biochemical assay, survival was assessed qualitatively using a morphologic method in which cells were plated in 8-chamber Lab Tek slides in DbEM alone (negative control), or DMEM supplemented with 0.5 ng/ml FGF2; 0.5% FCS (positive control), or 25-200 μg/ml Peptide A(d). After three days the cells were fixed with 4% paraformaldehyde, permeablised with methanol and stained with TRITC-conjugated falloidin to visualise the cell cytoskeleton.

[11] = system: rat cerebellar granule neurons cultured on monolayers of NIH 3T3 fibroblasts; experiment: in vitro neurite outgrowth co-culture assay (axon regeneration); format: cell-based
Protocol: An example of such an assay is a co-culture assay in which neurons are cultured on top of cellular monolayers for 16 hours, before being fixed and stained with a neuron-specific antibody. The mean length of the longest neurite per cell can then be determined by fluorescence microscopy using an appropriate image analysis programme. The neurons may be, for example, (in this case cerebellar granule cell neurons, hippocampal, dorsal root ganglion, olfactory, motor or dopaminergic neurons. The cellular monolayer is, for example NIH 3T3 fibroblasts.
Monolayers of NIH 3T3 fibroblasts were established by seeding 80,000 cells per well in Lab-Tek 8-chamber slides previously coated sequentially with poly-L-lysine and fibronectin and culturing them overnight in DMEM+10% FCS growth medium.
Cerebellum was dissected from post-natal day 2-4 rat pups and the meninges and extraneous tissue discarded. Cerebellum was chopped into small pieces and trypsinised for 10 minutes at 37° C. Trypsin was neutralised using growth medium and the cells pelletted at 1000×g for 7 minutes. Cerebellar neurons were then resuspended in SATO growth medium containing 2% FCS, counted, and plated on top of the fibroblast monolayer at a density of 1,500 neurons per well. After 16 hours, cocultures were fixed with 4% para-formaldehyde and stained with an anti-GAP43 neuron-specific antibody, which was a gift from Dr Graham Wilkin, Imperial College Department of Biochemistry, London, but any other neuron-specific marker can be used.
The mean neurite length of 150-200 neurons per well was determined using a fluorescent microscope and Zeiss KS300 imaging software.
Peptides A, A(d), B, C, D, E, and F were each incorporated in the SATO medium at a range of concentrations from 0 to 200 μg/ml. Nerve growth factor (NGF) and fibroblast growth factor (FGF2) were used as controls at the same range of concentrations.

I: Ac-DRVEPYSSTAKK / II: Ac-DRVEPYSSTAK / III: Ac-DRVEPYSSTA / IV: Ac-DRVEPYSSTA (amide I:11-IV:C, I:12-II:C, II:11-III:C) [Peptide A(d), [{Ac-DRVEPYSSTA}2-K]2-K-OH]
MAP kinase activation [1]: do not
MAP kinase activation ([1]; listed as Ac-DRVEPYSSTA[lys]2[lys]): do not
MAP kinase activation ([1]; listed as peptide 52): did not
survival of NIH3T3 cells in serum-free conditions (in words) ([2]; FGF2 only at low concentrations): stimulates dose-dependent survival
time over which survival is stimulated in serum-free conditions ([2]; maximum time tested): at least seven days
survival of cerebellar neurons [3]: stimulate survival of cerebellar neurons
mitogenicity (entry into S phase) [4]: unable to stimulate entry into S phase; also recorded: not mitogenic at any of the concentrations tested
cell survival / morphology [5]: stimulate cell survival
oligodendrocyte survival (in words) [6]: dose-dependent survival effect
survival of L6 cell line [7]: unable to stimulate the survival
cell proliferation [8]: does not stimulate proliferation
mitogenesis (observation of cells) [9]: does not stimulate mitogenesis
cell survival with combination ([10]; DMEM supplemented with Peptide A(d) together with FGF2): greater than with either agent alone
survival of 3T3 fibroblasts ([10]; Peptide A(d) alone at 25 μg/ml): stimulated the survival of 3T3 fibroblasts to the same extent as 0.125 ng/ml FGF2
stimulation of survival compared with positive control 0.5% FCS ([10]; all concentrations (25-200 μg/ml)): at least as good as the positive control
concentration stimulating maximal neurite outgrowth [11]: 400 nM
stimulation of neurite outgrowth (in words) ([11]; agent included in coculture medium, 16 hour culture): bi-phasic dose-response curve
peptide concentration giving maximal effects in neurite outgrowth assay ([11]; rat cerebellar neurons on 3T3 monolayer, 16 hours): 1.5-2.5 μg/ml and ~0.4 μM
potency in stimulating neurite outgrowth relative to the monomeric peptide ([11]; versus monomeric peptide): 250 times
